{
  "source": "paper PMC7580834",
  "about": "“Inhibition mechanism of naphthylphenylamine derivatives acting on the CDC25B dual phosphatase and analysis of the molecular processes involved in the high cytotoxicity exerted by one selected derivative in melanoma cells” (Journal of Enzyme Inhibition and Medicinal Chemistry, 2020)",
  "key": {"A375 cells": {"tested_on": "A375 cells", "assay": "Apoptosis by cytofluorimetry after PI incorporation (subdiploid DNA content)", "type": "cell-based, human", "settings": "5 or 10 µM, 24-72 h", "experimental": "(§1) The human melanoma cell lines A375 and A2058, deriving from a primary tumour or lymph nodal metastasis, respectively, were kindly provided from CEINGE (Naples, Italy). Cells were grown in DMEM supplemented with 10% FBS, 2 mM L-glutamine, 100 IU/mL penicillin G and 100 µg/mL streptomycin in humidified incubator at 37 °C under 5% CO2 atmosphere. The cell line BJ-5ta, a human skin fibroblast immortalised with the human telomerase reverse transcriptase[30] was cultured in a 4:1 mixture of DMEM and Medium 199 supplemented with 4 mM L-glutamine, 4.5 g/L glucose, 1.5 g/L sodium bicarbonate, 10% FBS, 100 IU/mL penicillin G, […] streptomycin in humidified incubator at 37 °C under 5% CO2 atmosphere. All cells were split and seeded every 3 days and used during their exponential phase of growth. Cell treatments were usually carried out after 24 h from plating.\n(§2) Cytofluorimetric analysis was used to determine the number of apoptotic nuclei essentially as previously described. Briefly, cells were seeded into six-well plates at 3 × 10^5 cells/well and after 24 h were treated with 4a or 0.5% (v/v) DMSO and incubated for different times. Then, cells were harvested with trypsin, and centrifuged, and the pellets were resuspended in 200 µL of a hypotonic lysis solution containing 50 µg/mL PI. After incubation at 4 °C for 30 min, cells were analysed with a FACScan flow cytometer (Becton Dickinson, Franklin Lakes, NJ, USA) to evaluate the presence of nuclei with DNA content lower than diploid."}, "BJ-5ta cells": {"tested_on": "BJ-5ta cells", "assay": "Apoptosis by cytofluorimetry after PI incorporation (subdiploid DNA content)", "type": "cell-based, human", "settings": "10 µM, 24-, 48- or 72-h, nontumorigenic fibroblasts", "experimental": "as §1, §2"}, "A2058 cells": {"tested_on": "A2058 cells", "assay": "Apoptosis by cytofluorimetry after PI incorporation (subdiploid DNA content)", "type": "cell-based, human", "settings": "5 or 10 µM, 24-72 h", "experimental": "as §1, §2"}, "OMFP-bound CDC25B-C473S [1]": {"tested_on": "OMFP-bound CDC25B-C473S", "assay": "Intrinsic fluorescence quenching of CDC25B-C473S in the presence of 5 µM OMFP (Stern-Volmer)", "type": "binding", "text": "(§3) The mutant form of CDC25B, carrying the C473S replacement (CDC25B-C473S), was obtained through site-directed mutagenesis of the CDC25B catalytic segment cloned in pET28a-CDC25B-cd. To this aim, the QuikChange site-directed mutagenesis kit (Stratagene, La Jolla, CA, USA) and the forward and reverse primers for C473S replacement (5′d-[…]-3′ and 5′d-[…]-3′) were used. Positive clones were obtained, and the nucleotide sequencing of the mutagenised segment excluded the presence of undesired mutations. The new vector was called pET28a-CDC25B-C473S-cd. The expression of the new vector and the purification of the recombinant form of CDC25B-C473S catalytic domain were carried out as previously reported for wild-type CDC25B catalytic domain[18], and similar yields were obtained. As expected, the mutant enzyme was unable to hydrolyse the synthetic substrate OMFP, when its activity was checked with the fluorimetric assay method previously described.\n(§4) Fluorescence spectra were recorded at 20 °C using a computer-assisted Cary Eclipse spectrofluorimeter (Varian, Palo Alto, CA, USA) equipped with an electronic temperature controller. The excitation wavelength was set at 280 nm and the excitation and emission slits were set at 10 and 20 nm, respectively. A 500 µL final volume of a 0.2 µM solution of CDC25B or CDC25B-C473S dissolved in 20 mM Tris•HCl, pH 7.8, 0.5 mM TCEP was directly prepared in the fluorimetric cuvette in the absence or in the presence of OMFP and/or some NPA derivatives. Serial pre-dilutions of the NPA derivatives or OMFP at increasing concentration were prepared in DMSO or methanol, respectively. Alongside, a convenient amount of the enzyme pre-dilution was prepared just before its usage for the experiment and stored on ice. When the combined effect of NPA derivative and OMFP was investigated, two enzyme pre-dilutions were prepared in the absence or in the presence of 5 µM OMFP. In order to evaluate the specific effect produced by any addition of solvent/ligand on the intrinsic fluorescence of the enzyme, 495 µL of the enzyme pre-dilution were placed in the fluorimetric cuvette and the relative spectrum was recorded; after the addition of 5 µL of each pre-dilution of solvent/ligand and fast mixing, the spectrum was recorded again. This procedure, repeated for each experimental point, allowed a normalisation of the specific effects produced by solvent/ligands. Furthermore, a correction was also applied for the little inner-filter effect due to the absorbance at 280 nm of the NPA derivative used at different concentrations; on the other hand, no correction was necessary for OMFP. All spectra, recorded at a scan speed of 120 nm/min, were normalised and corrected."}, "OMFP-bound CDC25B-C473S [2]": {"target": "T1, OMFP-bound CDC25B-C473S (Homo sapiens, UniProt P30305, C487S)", "T1 sequence (P30305 370-580 C487S)": "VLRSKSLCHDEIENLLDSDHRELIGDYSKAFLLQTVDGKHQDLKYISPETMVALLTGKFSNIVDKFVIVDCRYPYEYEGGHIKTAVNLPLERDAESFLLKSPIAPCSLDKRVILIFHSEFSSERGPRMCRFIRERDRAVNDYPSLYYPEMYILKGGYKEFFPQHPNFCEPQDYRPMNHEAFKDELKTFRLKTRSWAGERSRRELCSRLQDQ", "assay": "Intrinsic fluorescence quenching of CDC25B-C473S in the presence of 5 µM OMFP (Stern-Volmer)", "type": "binding", "settings": "reciprocal of KSV; presence of 5 µM OMFP; read-out: K′D of the complex, OMFP-bound CDC25B-C473S•inhibitor", "text": "as §3, §4"}},
  "data": [
    {"smiles": "CCOC(=O)c1cccc(Nc2cc(OC)cc3ccccc23)c1", "note": "[4a]", "values": [
      {"measurement": "apoptosis (cells with a hypodiploid DNA content)", "setting": "A375 cells", "value": "dose- and time-dependent increase"},
      {"measurement": "apoptosis (cells with a subdiploid DNA content)", "setting": "BJ-5ta cells", "value": "does not exert any apoptotic effect"},
      {"measurement": "apoptosis (cells with a hypodiploid DNA content)", "setting": "A2058 cells", "value": "dose- and time-dependent increase"},
      {"measurement": "KSV (Stern-Volmer constant)", "setting": "OMFP-bound CDC25B-C473S [1]; 0.2 µM CDC25B-C473S, in the presence of 5 µM OMFP", "value": 0.031, "unit": "µM⁻¹"},
      {"measurement": "K′D/Ki ratio", "setting": "OMFP-bound CDC25B-C473S [1]; K′D of OMFP-bound CDC25B-C473S•inhibitor over Ki", "value": 3.8},
      {"measurement": "Kd", "setting": "OMFP-bound CDC25B-C473S [2]", "value": 32, "unit": "µM"}
    ]}
  ]
}
